# In US8716292B2, “Riminophenazines with 2-(heteroaryl)amino substituents and their anti-microbial activity” (priority 2010, dated 2014):
# Tested on: Mycobacterium tuberculosis H37Rv strains
# Assay: In vitro assay for antimicrobial susceptibility (microplate Alamar blue MIC)
# Type: cell-based
# Details: Mycobacterium tuberculosis, H37RV, in vitro, Mycobacterium tuberculosis H37Rv strains; read-out: MIC (μg/mL) against H37Rv
row,SMILES,MIC [µg/mL]
1,"Cc1ccc(-n2c3c/c(=N\C4CCN(CC(C)C)CC4)c(Nc4ccc(C)nc4)cc-3nc3ccccc32)cc1 [TBI-320, 5-(4-Methylphenyl)-3-(N-isobutyl-4-piperidyl)imino-2-(6-methyl-3-pyridyl)amino-3,5-dihydrophenazine]",0.11
2,"Cc1ccc(-n2c3c/c(=N\C(C)C)c(Nc4cccnc4C)cc-3nc3ccccc32)cc1 [TBI-321, 5-(4-Methylphenyl)-3-(1-methylethyl)imino-2-(2-methyl-3-pyridyl)amino-3,5-dihydrophenazine]",0.419
3,"COC1CCC(/N=c2\cc3n(-c4ccc(C)cc4)c4ccccc4nc-3cc2Nc2cccnc2C)CC1 (stereo not shown) [TBI-322, 5-(4-Methylphenyl)-3-(4-methoxycyclohexyl)imino-2-(2-methyl-3-pyridyl)amino-3,5-dihydrophenazine]",0.092
4,"Cc1ccc(-n2c3c/c(=N\C4CCOCC4)c(Nc4cccnc4C)cc-3nc3ccccc32)cc1 [TBI-323, 5-(4-Methylphenyl)-3-(4-tetrahydropyranyl)imino-2-(2-methyl-3-pyridyl)amino-3,5-dihydrophenazine]",0.057
5,"Cc1ccc(-n2c3c/c(=N\CCN4CCOCC4)c(Nc4cccnc4C)cc-3nc3ccccc32)cc1 [TBI-324, 5-(4-Methylphenyl)-3-(2-morpholinoethyl)imino-2-(2-methyl-3-pyridyl)amino-3,5-dihydrophenazine]",0.12
6,"Cc1ccc(-n2c3c/c(=N\C4CCN(CC(C)C)CC4)c(Nc4cccnc4C)cc-3nc3ccccc32)cc1 [TBI-325, 5-(4-Methylphenyl)-3-(N-isobutyl-4-piperidyl)imino-2-(2-methyl-3-pyridyl)amino-3,5-dihydrophenazine]",0.056
7,"Cc1ccc(-n2c3c/c(=N\C4CCN(C)CC4)c(Nc4cccnc4C)cc-3nc3ccccc32)cc1 [TBI-326, 5-(4-Methylphenyl)-3-(N-methyl-4-piperidyl)imino-2-(2-methyl-3-pyridyl)amino-3,5-dihydrophenazine]",0.1
8,"Cc1ccc(-n2c3c/c(=N\C(C)C)c(Nc4cncc(C)c4)cc-3nc3ccccc32)cc1 [TBI-327, 5-(4-Methylphenyl)-3-(1-methylethyl)imino-2-(5-methyl-3-pyridyl)amino-3,5-dihydrophenazine]",0.109
9,"Cc1ccc(-n2c3c/c(=N\C4CCOCC4)c(Nc4cncc(C)c4)cc-3nc3ccccc32)cc1 [TBI-328, 5-(4-Methylphenyl)-3-(4-tetrahydropyranyl)imino-2-(5-methyl-3-pyridyl)amino-3,5-dihydrophenazine]",0.037
10,"Cc1ccc(-n2c3c/c(=N\C4CCCCC4)c(Nc4cncc(C)c4)cc-3nc3ccccc32)cc1 [TBI-329, 5-(4-Methylphenyl)-3-cyclohexylimino-2-(5-methyl-3-pyridyl)amino-3,5-dihydrophenazine]",0.092
11,"COC1CCC(/N=c2\cc3n(-c4ccc(C)cc4)c4ccccc4nc-3cc2Nc2cncc(C)c2)CC1 (stereo not shown) [TBI-330, 5-(4-Methylphenyl)-3-(4-methoxycyclohexyl)imino-2-(5-methyl-3-pyridyl)amino-3,5-dihydrophenazine]",0.035
12,COc1ncccc1Nc1cc2nc3ccccc3n(-c3ccc(C)cc3)c-2c/c1=N\C1CCCCC1 [TBI-331],0.047
13,"COc1ncccc1Nc1cc2nc3ccccc3n(-c3ccc(C)cc3)c-2c/c1=N\C1CCC(O)CC1 (stereo not shown) [TBI-332, 5-(4-Methylphenyl)-3-(4-hydroxycyclohexyl)imino-2-(2-methoxy-3-pyridyl)amino-3,5-dihydrophenazine]",0.294
14,"Cc1ccc(-n2c3c/c(=N\C4CCCCC4)c(Nc4cccnc4)cc-3nc3ccccc32)cc1 [TBI-333, 5-(4-Methylphenyl)-3-cyclohexylimino-2-(3-pyridyl)amino-3,5-dihydrophenazine]",0.061
15,"Cc1ccc(-n2c3c/c(=N\C4CCC(O)CC4)c(Nc4ccc(C)nc4)cc-3nc3ccccc32)cc1 (stereo not shown) [TBI-334, 5-(4-Methylphenyl)-3-(4-hydroxycyclohexyl)imino-2-(6-methyl-3-pyridyl)amino-3,5-dihydrophenazine]",0.372
16,"Cc1ccc(-n2c3c/c(=N\C4CCC(O)CC4)c(Nc4cccnc4C)cc-3nc3ccccc32)cc1 (stereo not shown) [TBI-335, 5-(4-Methylphenyl)-3-(4-hydroxycyclohexyl)imino-2-(2-methyl-3-pyridyl)amino-3,5-dihydrophenazine]",0.336
17,"CC(C)/N=c1\cc2n(-c3ccc(Cl)c(Cl)c3)c3ccccc3nc-2cc1Nc1cccnc1 [TBI-336, 5-(3,4-Dichlorophenyl)-3-(1-methylethyl)imino-2-(3-pyridyl)amino-3,5-dihydrophenazine]",0.055
18,"Cc1ccc(-n2c3c/c(=N\C4CCC(O)CC4)c(Nc4cncc(C)c4)cc-3nc3ccccc32)cc1 (stereo not shown) [TBI-337, 5-(4-Methylphenyl)-3-(4-hydroxycyclohexyl)imino-2-(5-methyl-3-pyridyl)amino-3,5-dihydrophenazine]",0.452
19,"Cc1ccc(-n2c3c/c(=N\C4CCC(O)CC4)c(Nc4cccnc4)cc-3nc3ccccc32)cc1 (stereo not shown) [TBI-338, 5-(4-Methylphenyl)-3-(4-hydroxycyclohexyl)imino-2-(3-pyridyl)amino-3,5-dihydrophenazine]",0.5
20,"COc1ncccc1Nc1cc2nc3ccccc3n(-c3ccc(C)cc3)c-2c/c1=N\C1CC1 [TBI-339, 5-(4-Methylphenyl)-3-cyclopropylimino-2-(2-methoxy-3-pyridyl)amino-3,5-dihydrophenazine]",0.033
21,"Cc1ccc(-n2c3c/c(=N\C4CC4)c(Nc4ccc(C)nc4)cc-3nc3ccccc32)cc1 [TBI-340, 5-(4-Methylphenyl)-3-cyclopropylimino-2-(6-methyl-3-pyridyl)amino-3,5-dihydrophenazine]",0.149
22,"Cc1ccc(-n2c3c/c(=N\C4CC4)c(Nc4cccnc4C)cc-3nc3ccccc32)cc1 [TBI-341, 5-(4-Methylphenyl)-3-cyclopropylimino-2-(2-methyl-3-pyridyl)amino-3,5-dihydrophenazine]",0.014
23,"Cc1ccc(-n2c3c/c(=N\C4CC4)c(Nc4cncc(C)c4)cc-3nc3ccccc32)cc1 [TBI-342, 5-(4-Methylphenyl)-3-cyclopropylimino-2-(5-methyl-3-pyridyl)amino-3,5-dihydrophenazine]",0.022
24,"Clc1ccc(-n2c3c/c(=N\C4CC4)c(Nc4cccnc4)cc-3nc3ccccc32)cc1Cl [TBI-343, 5-(3,4-Dichlorophenyl)-3-cyclopropylimino-2-(3-pyridyl)amino-3,5-dihydrophenazine]",0.014
25,"COc1ncccc1Nc1cc2nc3ccccc3n(-c3ccc(C)cc3)c-2c/c1=N\C1CCC1 [TBI-344, 5-(4-Methylphenyl)-3-cyclobutylimino-2-(2-methoxy-3-pyridyl)amino-3,5-dihydrophenazine]",0.04
26,"Cc1ccc(-n2c3c/c(=N\C4CCC4)c(Nc4cccnc4)cc-3nc3ccccc32)cc1 [TBI-345, 5-(4-Methylphenyl)-3-cyclobutylimino-2-(3-pyridyl)amino-3,5-dihydrophenazine]",0.221
27,"Cc1ccc(-n2c3c/c(=N\C4CCC4)c(Nc4ccc(C)nc4)cc-3nc3ccccc32)cc1 [TBI-346, 5-(4-Methylphenyl)-3-cyclobutylimino-2-(6-methyl-3-pyridyl)amino-3,5-dihydrophenazine]",0.058
28,"Cc1ccc(-n2c3c/c(=N\C4CCC4)c(Nc4cccnc4C)cc-3nc3ccccc32)cc1 [TBI-347, 5-(4-Methylphenyl)-3-cyclobutylimino-2-(2-methyl-3-pyridyl)amino-3,5-dihydrophenazine]",0.042
